Reference: US20170232017A1, “TREATMENT OF CANCER” (Threshold Pharmaceuticals, Inc., priority 2012, published 2017)

Test system: patients with first-line advanced pancreatic cancer
Test: randomized controlled Phase 2b clinical trial of TH-302 in combination with gemcitabine vs gemcitabine alone (NCT01144455)
Method: (§1) The clinical trial was conducted as a multi-center, randomized, controlled, dose-ranging, Phase 2b crossover clinical trial of TH-302 in combination with gemcitabine in patients with first line advanced pancreatic cancer. The primary endpoint of the trial was progression-free survival. The secondary endpoints were overall response rate, overall survival, change in CA 19-9 as well as various other efficacy and safety parameters. Tumor response was evaluated at baseline and every eight weeks using RECIST. Patients for whom monotherapy with gemcitabine is considered standard therapy were eligible for the trial. Patients were randomized equally into one of three cohorts: TH-302 at a dose of 240 mg/m^2 plus gemcitabine, TH-302 at a dose of 340 mg/m^2 plus gemcitabine, or gemcitabine alone. Patients who successfully completed six cycles of treatment without evidence of significant treatment-related toxicity or progressive disease could continue to receive treatment. If a patient experienced cancer progression on gemcitabine alone, the patient could cross over and be randomized into one of the TH-302 plus gemcitabine cohorts. The primary efficacy analysis was performed based upon 149 investigator-assessed PFS events and per protocol pooled the data from the two gemcitabine plus TH-302 dose groups in the comparison to gemcitabine alone.
In a separate Phase 2b trial, TH-302 was administered intravenously for 30 to 60 minutes on days 1, 8 and 15 of a 28 day cycle at either 240 mg/m^2 or 340 mg/m^2. Gemcitabine was dosed according to its package insert on days 1, 8 and 15 of a 28 day cycle. The 214 patient randomized controlled Phase 2b clinical trial compared the efficacy and safety of these two doses (240 mg/m^2 and 340 mg/m^2) of TH-302 in combination with gemcitabine to gemcitabine alone in patients with first-line advanced pancreatic cancer.
as §1, with “CA19-9” for “CA 19-9”, “over” for “over and be randomized”
This example is an update of the open-label, multicenter, randomized, Phase 2b study (NCT01144455) of two dose levels of TH-302 in combination with gemcitabine vs gemcitabine alone. The update was conducted in September 2012 and including a further follow-up of the data provided in Example 2.
Patients were stratified according to their disease stage (unresectable locally advanced vs distant metastases) and randomized as shown in FIG. 4.

Cn1c(COP(=O)(NCCBr)NCCBr)cnc1[N+](=O)[O-] [TH-302, (2-bromoethyl)({[(2-bromoethyl)amino][(2-nitro-3-methylimidazol-4-yl)methoxy]phosphoryl})-amine]
improvement in median PFS (TH-302 treated groups (combined) vs gemcitabine alone): about 2 months | Skin and mucosal toxicities related to TH-302 (in combination with gemcitabine): dose dependent but not dose limiting | median PFS (two groups (combined) that received TH-302 at different doses plus gemcitabine, FIG. 2A): 5.6 months

Nc1ccn([C@@H]2O[C@H](CO)[C@@H](O)C2(F)F)c(=O)n1 [gemcitabine]
response rate (gemcitabine alone arm, primary analysis): 12% | median progression-free survival (PFS) (gemcitabine alone, primary analysis): 3.6 months | Median time to CA 19-9 response, months (range) (human, in vivo): 1.8 (0.9-5.6) months | Patients with AEs, (%): Any rash (human, in vivo): 16% | Patients with AEs, (%): Pyrexia (human, in vivo): 23% | Patients with AEs, (%): Stomatitis (human, in vivo): 7% | Mean CA 19-9 nadir change (patients with baseline > upper limit of normal and at least one post-baseline assessment): −523 U/mL | CA 19-9 decrease >20%, (%) (percent of patients): 68% | CA 19-9 decrease >50%, (%) (percent of patients): 52% | CA 19-9 decrease >90%, (%) (percent of patients): 16% | 6-month survival rate (update September 2012): 57% | 12-month survival rate (update September 2012): 26% | Disease control (CR, PR, plus stable disease) (update September 2012): 67 % of patients | Grade 3/4 febrile neutropenia (update September 2012): 0 % of patients | Objective best (unconfirmed) response (CR plus PR) (update September 2012): 10 % of patients | Treatment-emergent Grade 3/4 neutropenia (update September 2012): 16 % of patients | Treatment-emergent Grade 3/4 thrombocytopenia (update September 2012): 10% | median PFS (update September 2012, FIG. 5A): 3.6 months | Median OS (update September 2012, FIG. 5B): 6.9 months
